In US20220273688A1, “Treatment of Glycosylation Deficiency Diseases” (Wellstat Therapeutics Corporation, priority 2014, published 2022):

Tests used:
[1] = tested on: Phosphoglucomutase-1 (PGM-1) deficiency; conditions: galactose 0.5 to 1 g/kg per day; cited from earlier work
[2] = tested on: patient with GNE myopathy; experiment: Treatment of a GNE myopathy patient with N-acetylmannosamine plus uridine triacetate; type: in vivo, human; conditions: uridine triacetate 2 g/m2 BSA twice per day with oral N-acetylmannosamine 3 to 10 grams per day
Protocol: A patient displaying progressive distal muscle weakness, with vacuoles and filamentous inclusions in a muscle biopsy, is diagnosed with GNE myopathy by testing for mutations in GNE, which result in impaired synthesis of endogenous sialic acid. The patient is treated with oral N-acetylmannosamine at a dose of 3 to 10 grams per day. The patient is also treated with uridine triacetate a dosage of 2 grams per square meter of body surface area administered twice per day.

[3] = tested on: patient with phosphoglucomutase-1 deficiency (Type II CDG); experiment: Treatment of a phosphoglucomutase-1 deficiency patient with d-galactose plus uridine triacetate; type: in vivo, human; conditions: uridine triacetate 2 g/m2 BSA twice per day with 1 gram/kg d-galactose per day
Text: A patient with multisystem disease consistent with phosphoglucomutase deficiency receives a definitive diagnosis via detection of impaired transferring glycosylation and a mutation in PGM-1.

[4] = tested on: patient with congenital disorder of glycosylation (reduced availability of a uridine-diphospho sugar); experiment: Treatment of a CDG patient with oral uridine triacetate; type: in vivo, human; conditions: 2 grams per square meter of body surface area, three times per day
Protocol: A patient displaying developmental delays is diagnosed with a congenital disorder of glycosylation by detection of a mutation affecting glycosylation by reducing availability of a uridine-diphospho sugar, corroborated by biochemical measurements in cells from the patient. The patient is treated with oral uridine triacetate at a dose of 2 grams per square meter of body surface area, administered three times per day.

[5] = tested on: patient with GPT deficiency (Type II CDG); experiment: Treatment of a GPT deficiency patient with N-acetylglucosamine plus uridine triacetate; type: in vivo, human; conditions: uridine triacetate 2 g/m2 BSA twice per day with N-acetylglucosamine 200 mg/kg per day
Protocol: A patient displaying severe hypotonia, medically intractable seizures, developmental delay andmicrocephaly is diagnosed with a deficiency of activity of the enzyme GPT, a Type II CDG, by detection of a mutation in its encoding gene DPAGT-1. (“GPT” is the enzyme dolichol phosphate N-acetyl-glucosamine-1 phosphate transferase; “DPAGT-1” is the gene that encodes GPT.) The patient is treated with N-acetylglucosamine at a dose of 200 mg/kg per day. The patient is also treated with uridine triacetate a dosage of 2 grams per square meter of body surface area administered twice per day.

Row | Structure (SMILES) | symptom resolution [1] | clinical response versus N-acetylmannosamine alone [2] | clinical response versus d-galactose alone [3] | response to treatment (protein glycosylation and clinical condition) [4] | clinical response versus N-acetylglucosamine alone [5]
1 | O=C[C@H](O)[C@@H](O)[C@@H](O)[C@H](O)CO [galactose] | partial resolution of some symptoms |  |  |  | 
2 | CC(=O)OC[C@H]1O[C@@H](n2ccc(=O)[nH]c2=O)[C@H](OC(C)=O)[C@@H]1OC(C)=O [uridine triacetate, 2′,3′,5′-tri-O-acetyluridine] |  | improves the clinical response beyond that achieved with N-acetylmannosamine alone | improves the clinical response beyond that achieved with d-galactose alone | responds to treatment, displaying biochemical measures of improved protein glycosylation and concurrent improvements in clinical condition | improves the clinical response beyond that achieved with N-acetylglucosamine alone
